Reference: PMC12145052 (Acta Pharmaceutica Sinica. B, 2025)
In brackets after ≈: the same amount, converted by molar mass. Where a SMILES comes first, the peptide text is derived from it. [ ]: non-standard residue; d: D form. Phe(ol) = N[C@H](CO)Cc1ccccc1; Aib = CC(C)(N)C(=O)O

What was measured:
MRSA 1530 (cfr) = assay: Antibacterial test, broth microdilution; assay type: cell-based, methicillin-resistant Staphylococcus aureus; details: Staphylococcus aureus
MRSA T144 [1] = assay: Galleria mellonella infection model; assay type: in vivo; details: MRSA T144 5.0 × 10^6 CFUs; 10 mg/kg at 1 h post-infection; n = 7
MRSA T144 [2] = assay: Antibacterial test, broth microdilution; assay type: cell-based, methicillin-resistant Staphylococcus aureus; details: Staphylococcus aureus
S. simulans 4 = assay: Antibacterial test, broth microdilution; assay type: cell-based; details: Staphylococcus simulans
S. aureus ATCC 29213 = assay: Antibacterial test, broth microdilution; assay type: cell-based, Staphylococcus aureus; details: Fig. S5
[3] = read-out: KD with PG; cited from earlier work

In the case of `CN[C@H](CC(C)C)C(=O)N[C@H]1C(=O)N[C@@H](CC(N)=O)C(=O)N[C@H]2C(=O)N[C@H]3C(=O)N[C@H](C(=O)N[C@H](C(=O)O)c4cc(O)cc(O)c4-c4cc3ccc4O)[C@H](O)c3ccc(c(Cl)c3)Oc3cc2cc(c3O[C@@H]2O[C@H](CO)[C@@H](O)[C@H](O)[C@H]2O[C@H]2C[C@](C)(N)[C@H](O)[C@H](C)O2)Oc2ccc(cc2Cl)[C@H]1O` [Vancomycin], the MIC (MRSA 1530 (cfr)) is reported as 1 µg/mL (≈ 0.69 µM), the “Bacterial loads in G. mellonella larvae” value (MRSA T144 [1]) is reported as “decreased bacterial loads” and the MIC (MRSA T144 [2]) is reported as 1 µg/mL (≈ 0.69 µM). For the same molecule, the MIC (S. simulans 4) was 1 µg/mL (≈ 0.69 µM).

Work on `CC(=O)NC(C)(C)C(=O)N1CCC[C@H]1C(=O)NC(C)(C)C(=O)N[C@@H](C)C(=O)NC(C)(C)C(=O)N[C@@H](C)C(=O)N[C@@H](CCC(N)=O)C(=O)NC(C)(C)C(=O)N[C@H](C(=O)NC(C)(C)C(=O)NCC(=O)N[C@@H](CC(C)C)C(=O)NC(C)(C)C(=O)N1CCC[C@H]1C(=O)N[C@H](C(=O)NC(C)(C)C(=O)NC(C)(C)C(=O)N[C@@H](CCC(=O)O)C(=O)N[C@@H](CCC(N)=O)C(=O)N[C@H](CO)Cc1ccccc1)C(C)C)C(C)C` [alamethicin] (Ac-[Aib]P[Aib]A[Aib]AQ[Aib]V[Aib]GL[Aib]PV[Aib][Aib]EQ[Phe(ol)]; N-terminus assumed) yielded an MIC (S. aureus ATCC 29213) of 16 µg/mL (≈ 8.15 µM).

For daptomycin, the Kd [3] is listed as 3.1 µM.
